Experimental data from US10314827B2, “Methods of use of cyclopamine analogs” (Infinity Pharmaceuticals, Inc., priority 2006, dated 2019).
pEC50: −log10 of the molar value. Read-outs that look alike come from different tables or passages of the source.

Legend:
Hedgehog pathway = experiment: C3H10T1/2 osteoblast differentiation assay (alkaline phosphatase readout); format: cell-based, Mouse; settings: C3H10T1/2 cells, sonic Hedgehog 250 ng/ml, AP activity normalized to total protein, read-out: Differentiation Assay EC50 (approximate EC50 for inhibition)
Text: Hedgehog pathway specific cancer cell killing effects may be ascertained using the following assay. C3H10T1/2 cells differentiate into osteoblasts when contacted with the sonic hedgehog peptide (Shh-N). Upon differentiation; these osteoblasts produce high levels of alkaline phosphatase (AP) which can be measured in an enzymatic assay (Nakamura et al., X BBRC (1997) 237:465). Compounds that block the differentiation of C3H10T1/2 into osteoblasts (a Shh dependent event) can therefore be identified by a reduction in AP production (van der Horst et al., Bone (2003) 33:899). The assay details are described below. The results approximate (EC50 for inhibition) of the differentiation assay is shown below in Table 1.
Mouse embryonic mesoderm fibroblasts C3H10T1/2 cells (obtained from ATCC) were cultured in Basal MEM Media (Gibco/Invitrogen) supplemented with 10% heat inactivated FBS (Hyclone), 50 units/ml penicillin and 50 ug/ml streptomycin (Gibco/Invitrogen) at 37° C. With 5% CO2 in air atmosphere.
C3H10T1/2 cells were plated in 96 wells with a density of 8×10^3 cells/well. Cells were grown to confluence (72 hrs). After sonic Hedgehog (250 ng/ml), and/or compound treatment, the cells were lysed in 110 μL of lysis buffer (50 mm Tris ph 7.4, 0.1% tritonx100), plates were sonicated and lysates spun through 0.2 μm PVDF plates (Corning). 40 μL of lysates was assayed for AP activity in alkaline buffer solution (Sigma) containing 1 mg/ml p-Nitrophenyl Phosphate. After incubating for 30 min at 37° C., the plates were read on an Envision plate reader at 405 nm. Total protein was quantified with a BCA protein assay kit from Pierce according to manufacturer's instructions. AP activity was normalized against total protein.

[1] = system: Gli-responsive luciferase reporter; experiment: Gli-responsive luciferase reporter transient transfection assay, Nalm-6; format: cell-based; settings: Nalm-6, 1 um; vehicle alone 8.42
Text: (§1) The activity of Compound 42 (1 um) against three pre-B cell acute lymphocytic leukemia cell lines (REH, RS4-11, and Nalm-6) was studied, using a transient transfection assay in which a Gli-responsive luciferase reporter was transiently transfected into cells. Treatment with Compound 42 repressed luciferase activity compared to a vehicle treated control (Table 4).

RL = experiment: NHL colony formation in methylcellulose, RL; format: cell-based, human; settings: 1.0 um, 72 hours
Protocol: (§2) The ability of Compound 42 to inhibit the in vitro growth of human cell lines derived from patients with non-Hodgkin's lymphoma (cell lines RL and Jeko-1) and Hodgkin's disease (cell line L428) was studied. Each of the cell lines was treated for 72 hours with Compound 42 (1.0 um) followed by plating in methylcellulose.

Jeko-1 = experiment: NHL colony formation in methylcellulose, Jeko-1; format: cell-based, human; settings: Jeko-1 (NHL), 1.0 um, 72 hours
Protocol: as §2

Oral multi-dose MTD = settings: mouse, in vivo, mice
[2] = system: Gli-responsive luciferase reporter; experiment: Gli-responsive luciferase reporter transient transfection assay, REH; format: cell-based; settings: 1 um, vehicle alone 6.73
Text: as §1

[3] = system: Gli-responsive luciferase reporter; experiment: Gli-responsive luciferase reporter transient transfection assay, RS4-11; format: cell-based; settings: RS4-11, 1 um; vehicle alone 12.97
Text: as §1

BXPC-3 cells = experiment: Pancreatic cancer model: subcutaneous BXPC-3 tumors in mice; format: in vivo, human; settings: orally 40 mg/kg/day, 25 daily doses, p=0.0309
Protocol: (§3) The activity of Compound 42 was further tested in a human pancreatic model: BXPC-3 cells were implanted subcutaneously into the flanks of the right legs of mice. On day 42 post-tumor implant, the mice were randomized into two groups to receive either Vehicle (30% HPBCD) or Compound 42. Compound 42 administered orally at 40 mg/kg/day. […] At the end of the study, the tumors were harvested 4 hours post the last dose to evaluate an on target response by q-RT-PCR analysis of the HH pathway genes.

KG1a = experiment: MDS colony formation in methylcellulose, KG1a; format: cell-based, human; settings: 1.0 um, 72 hours
Protocol: (§4) The ability of Compound 42 to inhibit the in vitro growth of human cell lines derived from patients with acute myeloid leukemia (AML, cell line U937) and myelodysplastic syndrome (MDS, cell line KG1 and KG1a) was studied. Each of the cell lines was treated for 72 hours with Compound 42 (1.0 um) followed by plating in methylcellulose.

murine Gli-1 = experiment: q-RT-PCR of HH pathway genes in harvested BXPC-3 tumors, murine Gli-1; format: in vivo; settings: tumors harvested 4 hours post last dose, 40 mg/kg/day orally, vs vehicle group
Protocol: as §3

RS4-11 = experiment: ALL colony formation in methylcellulose, RS4-11; format: cell-based; settings: RS4-11, treated 72 hours
Protocol: (§5) The effect of Compound 42 on the growth of two of these cell lines, treated in vitro for 72 hours, was also studied. Following treatment, cells were washed and plated in methylcellulose.

Gli-1 = experiment: Medulloblastoma model: Gli-1 mRNA expression in subcutaneously implanted tumors; format: in vivo, mouse; settings: single oral dose, 8 hours post dose
Protocol: (§6) The activity of Compound 42 was also evaluated in a transgenic mouse model of medulloblastoma. Mice that are heterozygous for loss of function mutations in the tumor suppressors Patched1 (Ptch1) and Hypermethylated in Cancer (Hic1) develop spontaneous medulloblastoma. […] When passaged as subcutaneous allografts, these tumors grow aggressively and are Hedgehog pathway-dependent. This model was employed to evaluate the efficacy of orally administered Compound, and to correlate activity with drug exposure in plasma and tumors.

NCI-H929 = experiment: Multiple myeloma colony growth in methylcellulose, NCI-H929; format: cell-based, human; settings: NCI-H929, treated 96 hours, colonies quantified 10-21 days later
Protocol: (§7) The ability of Compound 42 to inhibit the growth of multiple myeloma cells (MM) in vitro was tested, using human multiple myeloma cells lines (NCI-H929 and KMS12) and primary clinical bone marrow specimens derived from patients with MM. The cells were treated for 96 hours with Compound, washed, then plated in methylcellulose. Tumor colonies were quantified 10-21 days later as an indicator of cell growth potential following treatment.

medulloblastoma = experiment: Medulloblastoma model: Ptch1/Hic1 subcutaneous allografts, tumor growth; format: in vivo, mouse
Protocol: as §6
The approximate effective daily oral dose for 50% inhibition of tumor growth (ED50) is 4 mg/kg.

KG1 = experiment: MDS colony formation in methylcellulose, KG1; format: cell-based, human; settings: 1.0 um, 72 hours
Protocol: as §4

[4] = system: primary clinical bone marrow specimens derived from patients with MM; experiment: Multiple myeloma colony growth in methylcellulose, primary clinical specimens; format: cell-based, human; settings: primary clinical MM samples, treated 96 hours, colonies quantified 10-21 days later
Protocol: as §7

L428 = experiment: Hodgkin's disease colony formation in methylcellulose, L428; format: cell-based, human; settings: L428 (HD), 1.0 um, 72 hours
Protocol: as §2

U937 = experiment: AML colony formation in methylcellulose, U937; format: cell-based, human; settings: 1.0 um, 72 hours
Protocol: as §4

LX22 cells = experiment: Lung cancer model: LX22 primary SCLC xenograft; format: in vivo, human
Text: To test the activity of Compound 42 in a human SCLC tumor model, LX22 cells were implanted subcutaneously into the flank of the right leg. LX22 is primary xenograft model of SCLC derived from chemo-naive patients, which has been maintained by mouse to mouse passaging. This tumor responds to etoposide/carboplatin chemotherapy in way that closely resembles a clinical setting. LX22 regresses during chemotherapy treatment, goes through a period of remission, and then begins to recur. In the LX22 model, Compound single agent activity and its ability to modulate the chemoresistant recurrence was tested. On day 32 post tumor implant, mice were randomized into three dosing groups to receive Vehicle (30% HBPCD), Compound, or the chemotherapy combination of etoposide and carboplatin (E/P). […] Etoposide was administered i.v at 12 mg/kg on days 34, 35, 36, and 48, while Carboplatin was administered i.v. At 60 mg/kg on days 34, 41, and 48, post tumor implant. On day 50, the E/P treated mice were further randomized to receive either Vehicle (30% HPBCD) or Compound follow up treatment.

REH = experiment: ALL colony formation in methylcellulose, REH; format: cell-based; settings: treated 72 hours
Protocol: as §5

KMS12 = experiment: Multiple myeloma colony growth in methylcellulose, KMS12; format: cell-based, human; settings: KMS12, treated 96 hours, colonies quantified 10-21 days later
Protocol: as §7

human Gli-1 = experiment: q-RT-PCR of HH pathway genes in harvested BXPC-3 tumors, human Gli-1; format: in vivo; settings: tumors harvested 4 hours post last dose, 40 mg/kg/day orally
Protocol: as §3

## CC1=C2C[C@H]3[C@@H](CC[C@@H]4CC(=O)CC[C@@]43C)[C@@H]2CC[C@@]2(C1)O[C@@H]1C[C@H](C)CN(CCNC(=O)CCc3ccccc3)[C@H]1[C@H]2C [Compound 23]
Hedgehog pathway; Mus musculus, C3H 10T1/2
  pEC50: > 7.70

## CC1=C2C[C@H]3[C@@H](CC[C@@H]4C[C@H](NS(C)(=O)=O)CC[C@@]43C)[C@@H]2CC[C@]12O[C@@H]1C[C@H](C)CN[C@H]1[C@H]2C [Compound 55]
Hedgehog pathway; Mus musculus, C3H 10T1/2
  pEC50: > 7.70

## CC1=C2C[C@H]3[C@@H](CC[C@@H]4C[C@H](NS(C)(=O)=O)CC[C@@]43C)[C@@H]2CC[C@@]2(C1)O[C@@H]1C[C@H](C)CN[C@H]1[C@H]2C [Compound 42]
[1]
  Relative luc activity (+Compound): 1.44
RL
  % colony formation with Compound 42 (relative to vehicle control): 14.3%
Jeko-1
  % colony formation with Compound 42 (relative to vehicle control): 27.4%
Oral multi-dose MTD
  MTD: 40 mg/kg/day
[2]
  Relative luc activity (+Compound): 1.12
[3]
  Relative luc activity (+Compound): 1.31
BXPC-3 cells
  reduction of tumor volume growth compared to vehicle control: 40%
KG1a
  % colony formation with Compound 42 (relative to vehicle control): 34.6%
Murine Gli-1
  murine Gli-1 mRNA levels (q-RT-PCR): robust down-regulation
RS4-11
  colony formation with Compound (relative to vehicle control) - 1° plating: 71
RS4-11; replating of colonies
  colony formation with Compound (relative to vehicle control) - 2° plating: 11
Gli-1
  HH pathway down-regulation measured by Gli-1 mRNA expression: dose-dependent down-regulation
NCI-H929
  growth of cells relative to untreated control (100%): less than 25%
Hedgehog pathway; Mus musculus, C3H 10T1/2
  pEC50: > 7.70
medulloblastoma; Mus musculus, daily oral dosing, approximate, read-out: effective daily oral dose for 50% inhibition of tumor growth (ED50)
  ED50: ~4 mg/kg
medulloblastoma; daily (QD) PO administration
  inhibition of tumor growth: dose dependent inhibition of tumor growth, with frank tumor regression seen at higher doses
medulloblastoma; treated QD for 21 days
  long term survival following cessation of treatment: > 60 days
  tumor re-growth following cessation of treatment: little to no tumor re-growth
KG1
  % colony formation with Compound 42 (relative to vehicle control): 25.1%
[4]
  growth of cells relative to untreated control (100%): less than 25%
L428
  % colony formation with Compound 42 (relative to vehicle control): 21.4%
U937
  % colony formation with Compound 42 (relative to vehicle control): 43.4%
LX22 cells; follow up treatment from day 50, 40 mg/kg/day orally, 35 consecutive doses, p=0.0101
  tumor recurrence after etoposide/carboplatin (E/P), treated vs vehicle group: substantial delay in tumor recurrence
LX22 cells; orally 40 mg/kg/day, 16 consecutive doses
  single agent activity, treated vs vehicle groups: no measurable difference
REH
  colony formation with Compound (relative to vehicle control) - 1° plating: 63
REH; replating of colonies
  colony formation with Compound (relative to vehicle control) - 2° plating: 9
KMS12
  growth of cells relative to untreated control (100%): less than 25%
Human Gli-1
  human Gli-1 modulation (q-RT-PCR): no modulation

## CC1=C2C[C@H]3[C@@H](CC=C4C[C@@H](OCc5ccccc5)CC[C@@]43C)[C@@H]2CC[C@@]2(C1)O[C@@H]1C[C@H](C)CN(C(=O)OCc3ccccc3)[C@H]1[C@H]2C [Compound 7]
Hedgehog pathway
  pEC50: < 7.00

## CC(=O)NCCN1C[C@@H](C)C[C@H]2O[C@]3(CC[C@@H]4C(=C(C)C3)C[C@H]3[C@H]4CC[C@@H]4CC(=O)CC[C@@]43C)[C@H](C)[C@@H]21 [Compound 21]
Hedgehog pathway; Mus musculus, C3H 10T1/2
  pEC50: 7.00 to 7.70

## CC1=C2C[C@H]3[C@@H](CC[C@@H]4CC(=O)CC[C@@]43C)[C@@H]2CC[C@@]2(C1)O[C@@H]1C[C@H](C)CN(C(C)C)[C@H]1[C@H]2C [Compound 10]
Hedgehog pathway; Mus musculus, C3H 10T1/2
  pEC50: < 7.00

## CC(=O)O[C@H]1CC[C@@]2(C)[C@H](CC[C@H]3[C@@H]4CC[C@@]5(CC(C)=C4C[C@@H]32)O[C@@H]2C[C@H](C)CN[C@H]2[C@H]5C)C1 [Compound 35]
Hedgehog pathway; Mus musculus, C3H 10T1/2
  pEC50: > 7.70
